Reference: patent US8283308B2, “Copolymer-stabilized emulsions” (The Regents of the University of California, priority 2007, dated 2012)

Columns and labels:
Assay type in all cases: physicochemical
[1] = Emulsion droplet sizes from cryo-TEM (CTEM) images
Procedure: For certain applications, further size separation may be desired. For these applications, we could also use centrifugation to fractionate the emulsion and isolate emulsions of a desired size range. To accomplish such separation, a 1.5 mM K40rL20 emulsion (φ=0.2) that had been passed through the microfluidic homogenizer for six passes (N=6) was placed in a desktop centrifuge set to a low speed of 3,500 rpm (revolutions per minute) for 4 hours. Due to the differences in mass densities of the droplet structures with respect to the continuous liquid phase, the larger droplets rose to the top as a plug more rapidly and could be separated out easily from the extremely dilute suspension of smaller droplets below (i.e. the remnants). We were able to separate out larger droplets that had diameters greater than 300 nm. The remnant suspension had droplet diameters less than 300 nm, therefore, a higher speed centrifuge was needed to further fractionate the sizes of the droplets. The remnant suspension was placed in an ultracentrifuge and centrifuged […] at 20,000 rpm.
A 1.5 mM K40rL20 emulsion (prepared as above) was centrifuged in a 15 mL plastic centrifuge tube for 24 h at 3,500 rpm using an IEC HN-S tabletop centrifuge. A 0.5 mm plug formed, and was separated from the remnants. A plug was formed at the top of the tube (droplet sizes >300 nm, by cryo-TEM), due the different densities of silicone oil and water (0.973 g/mL for 10 cSt PDMS silicone oil vs. 1.0 g/mL for water). The plug was isolated from the rest of the sample, designated as primary remnants, and these primary remnants were further fractionated at 20,000 rpm for 4 hrs using a Beckman L8-55 ultracentrifuge. A plug formed on the top of the suspension (droplet sizes ranging from 30 nm to 200 nm, by cryo-TEM) along with droplets remaining in suspension as secondary remnants (droplet sizes ranging from 10 nm to 30 nm, by cryo-TEM).
Each emulsion sample was diluted tenfold with DI water prior to imaging. An aliquot of each sample (5 μL) was then placed on a carbon grid. The grid was loaded into a Vitrobot (FEI) automated vitrification device for automated sample blotting and vitrification in liquid ethane. The grid was stored under liquid nitrogen and then placed, using a cold stage, in a Phillips Tecnai F20 electron microscope with an accelerating voltage of 120 kV. Images were obtained on a Teitz SCX slow-scan CCD detector coupled to the Leginon software package.
PDMS silicone oil (10 cSt) was added to give the desired volume fraction A of oil to the continuous phase (0.05<φ<0.50). A microscale emulsion (i.e. “premix” emulsion) was prepared by either mixing for 1 minute using a handheld homogenizer (IKA Ultra-Turrax T8 with the S8N-8G dispersing element) or by mixing for 10 seconds using a handheld ultrasonic tip homogenizer (Cole-Parmer 4710 Series Model ASI at an output of 35-40%). This emulsion was then passed through a M-110S Microfluidizer® Processor with a 75 μm stainless steel/ceramic interaction chamber and an input air pressure p=130 psi. The emulsion was collected at the product outlet, and then passed through the microfluidic homogenizer repeatedly for a total of six passes (N=6), which decreased the average droplet radius (e.g. of the single droplets in a simple emulsion and of the outer and inner droplets in a double emulsion) and increased the monodispersity of the droplets in the emulsions. A similar protocol was used for emulsions generated using other block copolypeptide surfactants (Table 1. FIGS. 7A-7C). The ratio given by the inner droplet radius divided by the outer droplet radius (labeled as “I/O ratio”) was relatively uniform for different hydrophobic chain lengths at approximately 0.5 (Table 1, FIG. 7D). Other amphiphilic block copolypeptides, where either the lysine or leucine domains were substituted with different hydrophilic or hydrophobic residues, respectively, were also found to form double emulsions (FIGS. 8A-8D).

[2] = Emulsion droplet size by dynamic light scattering (DLS); settings: N=6, p=130 psi, φ=0.20
Procedure: The diameters of emulsion droplets were estimated by dynamic light scattering (DLS) with a Photocor-FC board and software. The samples were diluted to obtain an intensity reading of between 1×10^5 and 6×10^5. Each measurement was performed at a scattering angle of 90° for 500 seconds, with linear channel spacing and an adjustable baseline. The fitting procedure used was cumulant analysis with an adjustable baseline to fit the data and calculate average droplet radii.

[3] = Oil/water interfacial tension, Du Nouy ring method; settings: 10 cSt PDMS / 0.1 mM block copolypeptide solution, pull rate 0.01 mm/s, 25° C.
[4] = Emulsification activity, emulsion type and stability
Procedure: The freeze-dried K40rL10 copolypeptide was first dissolved in de-ionized water at the desired concentration. The range of block copolypeptide concentrations, C, varied from 1.0×10^−4 mM to 1.7 mM. Silicone oil (10 cSt, Gelest PDMS) was added to give the desired volume fraction φ of oil to the continuous phase (0.01≦φ≦0.8). A premix emulsion was prepared by applying shear using either a handheld homogenizer (IKA Ultra-Turrax T8 with the S8N-8G dispersing element) or a handheld ultrasonic homogenizer (Cole-Palmer 4710 Series Model ASI at an output of 35-40%). This premix emulsion was then passed through a M-110S Microfluidizer® Processor with a 75 μm stainless steel/ceramic interaction chamber and an input air pressure p=130 psi. The emulsion was collected at the product outlet of the microfluidic homogenizer, and then passed through the microfluidic homogenizer five more passes (N=6 total), which decreased the average droplet radius and increased the monodispersity of the sample. We have formed double emulsions of copolypeptide, water, and various oils other than 10 cSt and 100 cSt silicone oil, including soybean oil and methyl oleate.
Diblock copolypeptides were screened for emulsification activity by adding PDMS silicone oil to aqueous Kx(rac-L)y solutions (Table 1, FIGS. 2A-2B, 11A). […]

[5] = Critical aggregation concentration by pyrene fluorescence; settings: pyrene fluorescence at 20° C.
[6] = sample fractionated from larger droplets by centrifugation followed by ultracentrifugation

In the case of “Poly(L-lysine-HBr)40-b-poly(rac-leucine)20 [K40(rac-L)20]”, the “droplet diameters of remnant suspension after low speed centrifugation” value ([1]; 1.5 mM emulsion, 3,500 rpm) is reported as “less than 300 nm”, the droplet diameters ([1]; after passage six times through microfluidic homogenizer) is reported as “ten to a few hundred” and the “Inner/Outer Diameter Ratio” value ([1]; average of at least 50 droplets from CTEM, N=6, p=130 psi, C=1.0 mM, φ=0.20) is reported as 0.57. The “Droplet Diameter (nm)” value ([1]; outer droplets, average of at least 50 droplets from CTEM, microfluidic homogenizer N=6, p=130 psi, C=1.0 mM, φ=0.20) was 120 nm, the “Droplet Diameter (nm)” value [1, 6] was 60 nm and the “Inner/Outer Diameter Ratio” value [1, 6] was 0.45. The “smallest double emulsion droplets, diameter” value ([1]; ultrasonic homogenization) was “ca. 400 nm”, the average droplet radius ([2]; copolypeptide concentration 0.1 mM) was “about 400 nm” and the average droplet radius ([2]; copolypeptide concentration 1.5 mM) was “about 160 nm”. The “Interfacial Tension (dyne/cm)” value [3] was 25.3 dyne/cm, the “type of emulsion formed” value ([4]; PDMS silicone oil, microscopy / cryo-TEM) was “formation of double emulsions” and the “emulsification of other immiscible liquids” value ([4]; dodecane, soybean oil, methyl oleate, 1 mM in water) was “gave emulsions”. The “CAC” value [5] was 970 nM.
